Measured values taken from patent US20230255975A1, “METHODS FOR TREATING CANCER WITH COMBINATION THERAPIES” (Celgene Corporation, priority 2020, published 2023).
Each block holds one molecule with its values, some of them ahead of it.

How the values were obtained:
Format in all cases: cell-based
AMO1 control shRNA cells = assay: Proliferation assay in control shRNA cells; details: Homo sapiens; control shRNA AMO1 cells; read-out: IC50, proliferation
Experimental: (§1) Proliferation and viability assay. Cell growth curves were determined by monitoring the viability of cells with Trypan blue exclusion on a Vi-Cell-XR (Becton Dickinson, Franklin Lakes, N.J., USA). Cell lines were plated in triplicate in 96-well round-bottom plates with the indicated drug concentrations or knockdown cells. Proliferation assays were performed in triplicate at least three times (n=3) using either the WST-1 tetrazolium salt (Roche Applied Science) reagent used according to the manufacturer's specifications or by (3H)-thymidine incorporation as previously described (Bjorklund et al., Blood Cancer Journal 5, e354, 2015). All data were plotted and analyzed using GraphPad Prism 7 (GraphPad Software, La Jolla, Calif., USA) software, represented as the mean with an error determined as ±s.d.
(§2) To further confirm the synergistic effect, shRNA knockdown was combined with either Compound 5 or Compound 6 treatment. Expression of control and NEK2 shRNA in AMO1 cell lines was induced, followed by exposure of the cells to increasing concentrations of Compound 5 and Compound 6. The results were measured through a proliferation assay.

MM cell lines = assay: Cell cycle analysis (PI staining, flow cytometry) in response to Compound 5; details: for sub-G1 population: vehicle 5.02, cell line not named; for G2-M population: vehicle 16.3; for G0-G1 population: vehicle 69.2
Experimental: (§3) Flow cytometry: Annexin-V Alexa Fluor 488-conjugated antibody (Thermo Scientific, Waltham, Mass., USA) and To-Pro-3 (Thermo Scientific, Waltham, Mass., USA) were used according to the manufacturer's protocol and processed using Flow Jo software for at least three independent experiments. For cell cycle analysis, cells were stained with Propidium Iodide (PI) staining kit (Abcam, Cambridge, Mass., USA) and analysis was performed on Flow Jo V10 software. Staining of mitotic marker pHH3-Ser^10 was also performed by pHH3-Ser^10 and PI dual staining.
(§4) The changes in phospho Ser10-histone H3 which is a specific marker for G2-M phase using flow cytometry were measured. […] Nocodazole synchronizes cells in G2-M phase of cell cycle. At time points 30 minutes, 2 hours and 6 hours post rescue from overnight Nocodazole treatment, PLK1 levels were higher compared to vehicle condition (FIG. 3). Then, due to rescue from cell cycle synchronization post Nocodazole treatment, PLK1 levels normalized. In response to Compound 5 treatment, while Ikaros degradation began to happen after 30 minutes of treatments, downregulation of PLK1 and CDC25C levels was evident at 48 hours post treatment. In response to Nocodazole and Compound 5 combination treatment, the decrease in PLK1 levels was accelerated. Changes in cleaved caspase 3 inversely correlated with PLK1 levels, with an increase in cleaved caspase 3 at 48 and 72 hours post Compound 5 treatment with a decrease in PLK1 levels. Cell cycle studies matched with these time points. […] In case of Nocodazole and Compound 5 combination treatment, an accelerated decrease in G2-M cells and a higher increase in sub-G1 cells was observed.

phospho Ser10-histone H3 = phospho Ser10-histone H3 (G2-M marker) flow cytometry; details: vehicle 16.5
Experimental: as §3, §4

[1] = system: BIRC5 (Survivin) in MM1.S cell line; assay: BIRC5 levels in response to Compound 5; details: 48 and 72 hours, followed by onset of apoptosis
Experimental: BIRC5 levels decreased in response to Compound 5 treatment at 48 and 72 hours, followed by an onset of apoptosis in MM1.S cell line (FIG. 23B).

[2] = system: PLK1 signaling in MM1.S cells; assay: Immunoblot of PLK1 signaling; details: FIG. 2C
Experimental: Immunoblotting: Immunoblot analysis was performed using WES kits, (Protein Simple, San Jose, Calif., USA) at least two times each (n≥2), where the best representative is shown.
The effects of pomalidomide in isogenic sensitive (EJM) and resistant (EJM-PR) and MM1.S cell lines was analyzed. […] To determine the role of PLK1 in pomalidomide response, EJM and EJM-PR cell lines were treated with pomalidomide and analyzed changes in PLK1 levels and downstream signaling. […] The changes in PLK1 transcript levels were further examined in response to pomalidomide treatment in MM1. […] Confocal microscopy was performed to study changes in PLK1 and CDC25C staining in MM1.S cells and a decrease in PLK1 levels and simultaneous decrease in CDC25C staining in response to pomalidomide and Compound 5 treatments was observed. […] Further analysis of the ChIP-seq datasets of Aiolos confirmed binding of Aiolos on TSS of PLK1 with overlapping transcriptional activation H3K27Ac signature extrapolated from publicly available ChIP-seq datasets in GM12878 cell line (Encode project). Since changes in PLK1 levels are due to decrease in PLK1 transcription in response to antiproliferative compounds, the effects of Aiolos and Ikaros knockdowns on PLK1 levels using MM1.S cells with inducible expression of Aiolos and Ikaros shRNAs were analyzed. Both Aiolos and Ikaros knock down lead to a decrease in PLK1 levels (FIG. 2F), indicating transcriptional regulation of PLK1 by substrates of Cereblon.

AMO1 cells = assay: Apoptosis by Annexin V and Topro staining; details: AMO-1 cells
Experimental: as §3
The PLK1 inhibitor BI2536 and Compound 5 were tested for their activity as individual agents and in combination in AMO1 parental and AMO1-PR cell lines. […] Changes in apoptosis were analyzed using the single agent treatments and their combination using Annexin V and Topro staining. […] Changes in Ikaros and pro-survival signaling in these cell lines was analyzed in response to BI2536 and Compound 5 after 24 and 72 hours of treatment (FIG. 5K).

[3] = system: AMO1 NEK2 shRNA (NEK2 knocked-down) cells; assay: Proliferation assay in NEK2 knocked-down cells
Experimental: as §1, §2

K12PE cell line = assay: Proliferation assay
Experimental: (§5) Proliferation and viability assays: Cell growth curves were determined by monitoring the viability of cells with Trypan blue exclusion on a Vi-Cell-XR (Becton Dickinson, Franklin Lakes, N.J., USA). Proliferation assays were performed in triplicate at least three times (n=3) using (3H)-thymidine incorporation. All data were plotted and analyzed using GraphPad Prism 7 (GraphPad Software, La Jolla, Calif., USA) software, represented as the mean with an error determined as ±s.d.
as §5, with “assay.” for “assays:”, “Cell lines” for “Proliferation assays”, “plated” for “performed”, “in 96-well round-bottom plates with the indicated drug concentrations or knockdown cells. […]” for “at least three times (n=3) using (3H)-thymidine incorporation.”

K12PE-PR cell line = assay: Proliferation assay
Experimental: as §5
as §5, with “assay.” for “assays:”, “Cell lines” for “Proliferation assays”, “plated” for “performed”, “in 96-well round-bottom plates with the indicated drug concentrations or knockdown cells. […]” for “at least three times (n=3) using (3H)-thymidine incorporation.”

AMO1 cell line = assay: Proliferation assay
Experimental: as §5
as §5, with “assay.” for “assays:”, “Cell lines” for “Proliferation assays”, “plated” for “performed”, “in 96-well round-bottom plates with the indicated drug concentrations or knockdown cells. […]” for “at least three times (n=3) using (3H)-thymidine incorporation.”

[4] = system: AMO1-PR (pomalidomide resistant) cell line; assay: Proliferation assay
Experimental: as §5
as §5, with “assay.” for “assays:”, “Cell lines” for “Proliferation assays”, “plated” for “performed”, “in 96-well round-bottom plates with the indicated drug concentrations or knockdown cells. […]” for “at least three times (n=3) using (3H)-thymidine incorporation.”

H929 cell line = assay: Proliferation assay; details: Homo sapiens, NCI-H929, NRAS G13D, p-ERK Medium, read-out: IC50 (μM) Trametinib
Experimental: as §5, §1

Mc-CAR cell line = assay: Proliferation assay; details: McCAR; WT; p-ERK High; read-out: IC50 (μM) Trametinib
Experimental: as §5, §1

KARPAS-620 cell line = assay: Proliferation assay; details: p-ERK High, read-out: IC50 (μM) Trametinib
Experimental: as §5

KMS-20 cell line = assay: Proliferation assay; details: KRAS G12S, p-ERK High, read-out: IC50 (μM) Trametinib
Experimental: as §5

MOLP-8 cell line = assay: Proliferation assay; details: Homo sapiens, KRAS K180del, NRAS p.Q61L, p-ERK High, read-out: IC50 (μM) Trametinib
Experimental: as §5

U266 cell line = assay: Proliferation assay; details: Homo sapiens, U-266, BRAF K601N, p-ERK High, read-out: IC50 (μM) Trametinib
Experimental: as §5

KMM-1 cell line = assay: Proliferation assay; details: NRAS G13D, p-ERK High, read-out: IC50 (μM) Trametinib
Experimental: as §5

[5] = system: FOXM1 in AMO1-PR cell line; assay: FOXM1 expression after BIRC5 inhibition; details: FIG. 26B
Text: (§6) Inhibition of BIRC5 by YM155 also downregulates FOXM1 and pro-survival signaling.

[6] = system: FOXM1 in K12PE-PR cell line; assay: FOXM1 expression after BIRC5 inhibition; details: FIG. 26B
Text: as §6

Structure (SMILES): O=C1CC[C@H](N2Cc3c(OCc4ccc(CN5CCOCC5)cc4)cccc3C2=O)C(=O)N1 [Compound 5, (S)-3-(4-((4-(morpholinomethyl)benzyl)oxy)-1-oxoisoindolin-2-yl)piperidine-2,6-dione]
- IC50 (AMO1 control shRNA cells): 105 nM
- sub-G1 population (MM cell lines; 10 nM): 4.98
- G2-M population (MM cell lines; 10 nM): 12.3
- G0-G1 population (MM cell lines; 10 nM): 75.8
- sub-G1 population (MM cell lines; 30 nM): 11.3
- G2-M population (MM cell lines; 30 nM): 6.94
- G0-G1 population (MM cell lines; 30 nM): 78.3
- sub-G1 population (MM cell lines; 100 nM): 13.9
- G2-M population (MM cell lines; 100 nM): 6.27
- G0-G1 population (MM cell lines; 100 nM): 75.1
- levels of phospho Ser10-histone H3 (phospho Ser10-histone H3; 10 nM): 9.3
- levels of phospho Ser10-histone H3 (phospho Ser10-histone H3; 30 nM): 6.37
- levels of phospho Ser10-histone H3 (phospho Ser10-histone H3; 100 nM): 4.53
- BIRC5 levels [1]: decreased
- Dose giving decrease in PLK1 levels and downstream signaling relative to pomalidomide [2]: ten times lower dose
- PLK1 signaling ([2]; MMS.1 cells, increasing concentrations): dose dependent decrease
- late apoptosis (AMO1 cells; vehicle 2.24%): 3.07%
- early apoptosis (AMO1 cells; vehicle 2.69%): 4.86%
- IC50 ([3]; Homo sapiens, NEK2 knocked-down AMO1 cells): 18.7 nM
- Increase of activity by NEK2 knockdown in comparison to control shRNA cell line ([3]; IC50 control cells vs NEK2 knocked-down cells): 5 fold
- Synergy analysis (Calcusyn) of combination with JQ1 on proliferation (K12PE cell line; K12PE cells, in combination with JQ1): synergistic
- Synergy of combination with JQ1 on proliferation (K12PE-PR cell line; Pom resistant K12PE-PR, in combination with JQ1): synergistically decreased proliferation
- Synergy (Calcusyn) with NEK2 inhibitors (JH295 and rac-CCT 250863) on proliferation (AMO1 cell line; AMO1, NEK2 inhibitor 0.016-10 μM): strong synergy
- Combination analysis (Calcusyn) with YM155 on proliferation (AMO1 cell line; AMO1, in combination with YM155): synergistic activity
- Synergy with trametinib on proliferation (AMO1 cell line; AMO1, in combination with trametinib): strong synergy
- Synergy (Calcusyn) with NEK2 inhibitors (JH295 and rac-CCT 250863) on proliferation ([4]; NEK2 inhibitor 0.016-10 μM): strong synergy
- Combination analysis (Calcusyn) with YM155 on proliferation ([4]; in combination with YM155): synergistic activity
- Synergy with trametinib on proliferation ([4]; in combination with trametinib): strong synergy

- IC50 (H929 cell line): 0.00328 µM
- IC50 (KARPAS-620 cell line): 0.07 nM
- IC50 (U266 cell line): 0.000353 µM
Structure (SMILES): CC(=O)Nc1cccc(-n2c(=O)n(C3CC3)c(=O)c3c(Nc4ccc(I)cc4F)n(C)c(=O)c(C)c32)c1 [Trametinib]
- IC50 (Mc-CAR cell line): 0.0031 µM
- IC50 (KMS-20 cell line): 0.00222 µM
- IC50 (MOLP-8 cell line): 0.0117 µM
- IC50 (KMM-1 cell line): 0.00169 µM
- IC50 (AMO1 cell line; Homo sapiens, Amo1, KRAS146T, p-ERK High, read-out: IC50 (μM) Trametinib): 0.0012 µM

Structure (SMILES): COCCn1c2c([n+](Cc3cnccn3)c1C)C(=O)c1ccccc1C2=O.[Br-] [YM155, 1-(2-methoxyethyl)-2-methyl-4,9-dioxo-3-(pyrazin-2-ylmethyl)-4,9-dihydro-1H-naphtho[2,3-d]imidazol-3-ium bromide]
- FOXM1 expression [5]: downregulated FOXM1 expression in a dose dependent manner
- FOXM1 expression [6]: downregulated FOXM1 expression in a dose dependent manner
- EC50 (K12PE cell line; K12PE, BIRC5 inhibitor): 1.47 nM
- EC50 (K12PE-PR cell line; K12PE-PR, BIRC5 inhibitor): 1.07 nM
- EC50 (AMO1 cell line; Homo sapiens, AMO1, BIRC5 inhibitor): 1.09 nM
- EC50 ([4]; BIRC5 inhibitor): 0.12 nM
